In data set [1] the test system is M. tuberculosis H37Rv strain. Put plainly: microbe, parasite or virus in culture. The data set is classed as cell-based.
For data set [2], the system named is M. tuberculosis pan-susceptible clinical isolate CDCT-28. Put plainly: microbe, parasite or virus in culture. The data set is classed as cell-based. The conditions noted are these: Mycobacterium tuberculosis.
In a further data set the test system is S. typhimurium TA1535. Put plainly: Salmonella/microsome mutagenicity test. Here is the method: (§1) Salmonella typhimurium strains TA98, TA97a, TA100, TA1535, and TA102 were provided by MOLTOX® (Molecular Toxicology Inc. USA). Mutagenicity was assayed according to the pre-incubation procedure following the recommendation described in Mortelmans and Zieger (2000). […] Briefly, 100 μL of test bacterial cultures (1–2 x 10^9 cells/mL) were incubated at 37 °C with different concentrations of N9 (10–400 μg/plate) in the presence or absence of S9 mix, for 20 min, without shaking. […] Plates were incubated in the dark at 37 °C for 48 h before counting the revertant colonies. Assays were repeated twice and the plating for each concentration was conducted in triplicate. Data were evaluated by one-way analysis of variance (ANOVA), followed by Dunnett's post-test, using GraphPad Prism 5.0 (GraphPad, San Diego, CA, USA).

For a further data set, the system named is S. typhimurium TA100. The data set is described as follows: Salmonella/microsome mutagenicity test. Here is the method:
as §1

A further data set deals with S. typhimurium TA102. Put plainly: Salmonella/microsome mutagenicity test. As to conditions: TA102, +S9, positive control 5 μg/plate. The procedure: (§2) Salmonella typhimurium strains TA98, TA97a, TA100, TA1535, and TA102 were provided by MOLTOX® (Molecular Toxicology Inc. USA). Mutagenicity was assayed according to the pre-incubation procedure following the recommendation described in Mortelmans and Zieger (2000). […] Briefly, 100 μL of test bacterial cultures (1–2 x 10^9 cells/mL) were incubated at 37 °C with different concentrations of N9 (10–400 μg/plate) in the presence or absence of S9 mix, for 20 min, without shaking. […] 2-aminoanthracene (2-AA, 5 μg/plate) was used as positive control for all strains in the presence of metabolic activation (with S9 mix). […] Plates were incubated in the dark at 37 °C for 48 h before counting the revertant colonies. Assays were repeated twice and the plating for each concentration was conducted in triplicate. Data were evaluated by one-way analysis of variance (ANOVA), followed by Dunnett's post-test, using GraphPad Prism 5.0 (GraphPad, San Diego, CA, USA).

A further data set relates to S. typhimurium TA98. The data set is described as follows: Salmonella/microsome mutagenicity test. As to conditions: TA98, +S9, positive control 5 μg/plate. Here is the method: as §2
Another data set deals with S. typhimurium TA97a. Put plainly: Salmonella/microsome mutagenicity test. The conditions noted are these: +S9, positive control 5 μg/plate. The procedure:
as §2

Data set [3] has as its system M. tuberculosis pan-susceptible clinical isolate CDCT-28. As to conditions: cited from earlier work.
Data set [4] deals with M. tuberculosis H37Rv strain. More on the design: method as in Abbadi, 2018. As to conditions: ref Abbadi, 2018; cited from earlier work.
In a further data set the test system is M. tuberculosis H37Rv. Put plainly: Checkerboard assay, two-drug combination with REMA readout. It is filed as cell-based, Mycobacterium tuberculosis. The conditions noted are these: for MIC: Mycobacterium tuberculosis, read-out: MIC Alone, checkerboard, drug alone, three independent experiments.
Data set [5] relates to M. tuberculosis pNIP::KatG(WT). The data set is described as follows: microbe, parasite or virus in culture. It is filed as cell-based. The conditions noted are these: Mycobacterium tuberculosis.
Data set [6] concerns M. tuberculosis pNIP::control. The data set is described as follows: microbe, parasite or virus in culture. As to conditions: Mycobacterium tuberculosis; pNIP::control (empty vector). It is filed as cell-based.
Where [7] appears, read: Mycobacterium tuberculosis, H37RV, read-out: MIC.
Where [8] appears, read: TA1535, -S9, positive control 1 μg/plate.
Where [9] appears, read: TA100, -S9, positive control 1 μg/plate.
[10] abbreviates: TA1535, +S9, positive control 5 μg/plate.
Where [11] appears, read: TA100, +S9, positive control 5 μg/plate.

This is an account of results in publication PMC6095594, “Pre-clinical evaluation of quinoxaline-derived chalcones in tuberculosis” (PLoS ONE, 2018).

≈ marks a conversion by molar mass, not a printed value. Like-named read-outs stand apart in the source and are kept apart here.

Take `O=C(/C=C/c1ccc2nccnc2c1)c1ccccc1O` [N6]: in data set [1] (setting [7]), the MIC was greater than 5 µg/mL.

As to `COc1ccc(C(=O)/C=C/c2ccc3nccnc3c2)c(OC)c1OC` [N36], the MIC in data set [1] (setting [7]) came out at 25 µg/mL (≈ 71.4 µM).

Take `N#Cc1cccc(C(=O)/C=C/c2ccc3nccnc3c2)c1` [N34]: in data set [1] (setting [7]), the MIC was greater than 25 µg/mL.

Consider `COc1cccc(C(=O)/C=C/c2ccc3nccnc3c2)c1` [N23], for which the MIC in [2] is 2.5 µg/mL (≈ 8.61 µM); in data set [1] (H37Rv), 5 µg/mL (≈ 17.2 µM); in data set [1] (setting [7]) it was 3.13 to 12.5 µg/mL (≈ 10.8 to 43.1 µM).

As to `COc1cc(C(=O)/C=C/c2ccc3nccnc3c2)cc(OC)c1OC` [N15], the MIC was 3.13 µg/mL (≈ 8.93 µM) in [2], 6.25 µg/mL (≈ 17.8 µM) in data set [1] (H37Rv) and 3.13 to 12.5 µg/mL (≈ 8.93 to 35.7 µM) in [1] (setting [7]).

For the molecule `[N-]=[N+]=[N-].[Na+]` [NaN3, sodium azide, reference compound], in the data set on S. typhimurium TA1535 (setting [8]), the “MI: mutagenic index” value is 100.0 and the Number of revertants/plate is 1133.0±179.6 Rev/plate. In the data set with S. typhimurium TA100 (setting [9]), the “MI: mutagenic index” value is reported as 6.03 and the Number of revertants/plate was determined as 695.5±40.3 Rev/plate.

In the case of `O=C(/C=C/c1ccc2nccnc2c1)c1ccc(Br)cc1` [N4], in data set [1] (setting [7]), the MIC is greater than 25 µg/mL.

Consider `Nc1ccc2cc3ccccc3cc2c1` [2-AA, 2-aminoanthracene, reference compound], for which the “MI: mutagenic index” value in the data set with S. typhimurium TA1535 (setting [10]) is 6.96; with S. typhimurium TA100 (setting [11]), 11.03; in the data set with S. typhimurium TA102, 3.62; in the data set with S. typhimurium TA98, 39.65; in the data set on S. typhimurium TA97a, 6.44. The Number of revertants/plate in the data set with S. typhimurium TA1535 (setting [10]) amounted to 58.0±12.7 Rev/plate; in the data set with S. typhimurium TA100 (setting [11]) it was 1279.0±50.2 Rev/plate; with S. typhimurium TA102, 1354.0±21.1 Rev/plate; in the data set on S. typhimurium TA98, 1586.0±161.2 Rev/plate; in the data set with S. typhimurium TA97a, 742.0±59.4 Rev/plate.

In the case of `CO[C@H]1/C=C/O[C@@]2(C)Oc3c(C)c(O)c4c(O)c(c(/C=N/N5CCN(C)CC5)c(O)c4c3C2=O)NC(=O)/C(C)=C\C=C\[C@H](C)[C@H](O)[C@@H](C)[C@@H](O)[C@@H](C)[C@H](OC(C)=O)[C@@H]1C` [RIF, Rifampicin], the MIC in data set [3] and in data set [4] was less than 0.2 µg/mL in each case.

On to `O=C(/C=C/c1ccc2nccnc2c1)c1ccc2c(c1)OCO2` [N3], for which the MIC in data set [1] (setting [7]) was greater than 25 µg/mL.

With `N#Cc1ccc(C(=O)/C=C/c2ccc3nccnc3c2)cc1` [N33], the MIC in [1] (setting [7]) was greater than 25 µg/mL.

As for `O=C(/C=C/c1ccc2nccnc2c1)c1ccc([N+](=O)[O-])cc1` [N7], in data set [1] (setting [7]), the MIC was greater than 25 µg/mL.

`COc1c(N2C[C@@H]3CCCN[C@@H]3C2)c(F)cc2c(=O)c(C(=O)O)cn(C3CC3)c12` [MFX, moxifloxacin, reference compound]: the results for the MIC (with M. tuberculosis H37Rv (H37RV); in data set [4]) were 0.15 µg/mL and less than 0.2 µg/mL, respectively. The “Improvement of MIC of MFX in the presence of N9” value in the data set with M. tuberculosis H37Rv (all three experiments) stood at 4 fold.

As to `COc1ccccc1C(=O)/C=C/c1ccc2nccnc2c1` [N19], in data set [1] (setting [7]), the MIC was greater than 25 µg/mL.

Turning to `COc1cc(C(=O)/C=C/c2ccc3nccnc3c2)cc(OC)c1O` [N20], the MIC in [1] (setting [7]) is greater than 25 µg/mL.

With `NNC(=O)c1ccncc1` [INH, isoniazid, reference compound], the MIC in [5] was less than 0.2 µg/mL; in [2], 0.39 µg/mL (≈ 2.84 µM); in [1] (setting [7]), 0.39 µg/mL (≈ 2.84 µM); in data set [6], less than 0.2 µg/mL; with M. tuberculosis H37Rv (H37RV), 0.31 µg/mL. Besides, the “MIC Alone” value in the data set on M. tuberculosis H37Rv (H37RV) is 0.16 µg/mL.

With `COc1cc(OC)c(C(=O)/C=C/c2ccc3nccnc3c2)cc1OC` [N17], in data set [1] (setting [7]), the MIC was greater than 25 µg/mL.
